The values below come from US11696917B2, “Agent enhancing antitumor effect using pyrazolo[3,4-d]pyrimidine compound” (TAIHO PHARMACEUTICAL CO., LTD., priority 2017, dated 2023).

Like-named read-outs stand apart in the source and are kept apart here.

The target in experiment [1] is purified recombinant human HER2 protein (Homo sapiens (Human), UniProt P04626). Nature of the experiment: Measurement of inhibitory effect on HER2-phosphorylating activity (in vitro). The note with it: ATP 6 μM, 25° C., 40 minutes. Type of experiment: biochemical. An excerpt: The purified recombinant human HER2 protein used in the test was purchased from Carna Biosciences, Inc.
For the inhibitory activity measurement of each compound, the synthesis example compound was first serially diluted with dimethyl sulfoxide (DMSO).

The test system of experiment [2] is EGFR-overexpressing highly activated human epithelioid cancer cell line A431 cells. Put plainly: Cytostatic activity against EGFR-expressing cell line (A431), CellTiter-Glo. Type of experiment: cell-based. The note with it: 3-day culture, read-out: A431 cell growth inhibitory activity IC50 value. The text has this:
(§1) HER2-overexpressing human stomach cancer cell line NCI-N87 cells were suspended in RPMI1640 medium (manufactured by Life Technologies Corp.) containing 10% fetal bovine serum. Meanwhile, EGFR-overexpressing highly activated human epithelioid cancer cell line A431 cells were suspended in DMEM, high glucose medium (manufactured by Life Technologies Corp.) containing 10% fetal bovine serum. Subsequently, each cell suspension was inoculated to each well of a 384-well flat-bottom microplate and cultured at 37° C. for 1 day in an incubator containing 5% carbon dioxide. The synthesis example compound was dissolved in DMSO, and the test compound was diluted into a concentration of 500 times the final concentration using DMSO. The solution of the test compound in DMSO was diluted with the medium used in the suspension of each cell line, and this solution was added at a final concentration of DMSO of 0.2% to each well of the cell culture plate, followed by further culture at 37° C. for 3 days in an incubator containing 5% carbon dioxide.
Rate of growth inhibition (%)=(C−T)/(C)×100 T: Luminescence intensity of a well supplemented with the test compound C: Luminescence intensity of a well not supplemented with the test compound

The subject of experiment [3] is HER2-overexpressing human stomach cancer cell line NCI-N87 cells. Nature of the experiment: Cytostatic activity against HER2-expressing cell line (NCI-N87), CellTiter-Glo. Format: cell-based. Particulars: 3-day culture, read-out: NCI-N87 cell growth inhibitory activity IC50 value.
Description: as §1

As for `C=CC(=O)N1CCC[C@@H](n2nc(C(=O)Nc3ccc(CC(=O)N(C)C)c(Cl)c3)c3c(N)ncnc32)C1` [compound 8], the results for the IC50 in experiment [1], in experiment [2] and in experiment [3] were 9.2 nM, 955 nM and 8 nM, respectively.

As for `C=CC(=O)N1CCC[C@@H](n2nc(C(=O)Nc3cc(Cl)c(CC(=O)N(C)C)cc3OC)c3c(N)ncnc32)C1` [compound 9], the IC50 stood at 10 nM in experiment [1], 2450 nM in experiment [2] and 13 nM in experiment [3]. For the compound `C=CC(=O)N1CCC[C@@H](n2nc(C(=O)Nc3ccc(CC(=O)N(C)C)c(F)c3C)c3c(N)ncnc32)C1` [compound 12], the results for the IC50 in experiment [1], in experiment [2] and in experiment [3] were 7.5 nM, 340 nM and 3 nM, respectively. The corresponding values for `C=CC(=O)N1CCC[C@@H](n2nc(C(=O)Nc3cc(F)c(CC(=O)N(C)C)cc3Cl)c3c(N)ncnc32)C1` [compound 18] are 4.4 nM, 1060 nM and 12 nM.

Turning to `C=CC(=O)N1CCC[C@@H](n2nc(C(=O)Nc3cc(Cl)c(CC(=O)N(C)C)cc3Cl)c3c(N)ncnc32)C1` [compound 20], the IC50 in experiment [1] was 13 nM.

Take `C=CC(=O)N1CCCC(n2nc(Nc3ccc(C(=O)N(C)C)cc3)c3c(N)ncnc32)C1` (stereo not drawn) [compound 21]: the IC50 in experiment [1] worked out at 26 nM. Consider `C=CC(=O)N1CCC[C@@H](n2nc(C(=O)Nc3ccc(CC(=O)N(C)C)cc3C3CC3)c3c(N)ncnc32)C1` [compound 22], for which the IC50 in experiment [1] was determined as 48 nM. The same measure, in the same setting: the figure for `C=CC(=O)N1CCC[C@@H](n2nc(C(=O)Nc3ccc(CC(=O)N(C)C)cc3C#N)c3c(N)ncnc32)C1` [compound 23] is 20 nM; for `C=CC(=O)N1CCC[C@@H](n2nc(C(=O)Nc3cc(C#N)c(CC(=O)N(C)C)cc3C)c3c(N)ncnc32)C1` [compound 24] it is 38 nM; for `C=CC(=O)N1CCC[C@@H](n2nc(C(=O)Nc3ccc(CC(=O)N(C)C)cc3)c3c(N)ncnc32)C1` [compound 28] it is 46 nM. On to `C=CC(=O)N1CCC[C@@H](n2nc(C(=O)Nc3ccc(OC(=O)N(C)C)c4ccccc34)c3c(N)ncnc32)C1` [compound 33], for which the IC50 in experiment [2] worked out at 263 nM. With `C=CC(=O)N1CCC[C@@H](n2nc(C(=O)Nc3ccc(OC(=O)N(C)C)c(F)c3)c3c(N)ncnc32)C1` [compound 34], the IC50 stood at 2210 nM in experiment [2] and 32 nM in experiment [3].

As to `C=CC(=O)N1CCC[C@@H](n2nc(C(=O)Nc3ccc(OC(=O)N(C)C)c(F)c3F)c3c(N)ncnc32)C1` [compound 35], the IC50 came out at 16 nM in experiment [1], 2610 nM in experiment [2] and 8 nM in experiment [3].

As to `C=CC(=O)N1CCC[C@@H](n2nc(C(=O)Nc3ccc(CC(=O)N(C)C)c(OC)c3)c3c(N)ncnc32)C1` [compound 40], in experiment [1], the IC50 is 23 nM. On the same count and under the same terms, the figure for `C=CC(=O)N1CCC[C@@H](n2nc(C(=O)Nc3cccc4c(CC(=O)N(C)C)ccnc34)c3c(N)ncnc32)C1` [compound 41] is 18 nM; for `C=CC(=O)N1CCC[C@@H](n2nc(C(=O)Nc3ccc(CC(=O)N(C)C)c(F)c3)c3c(N)ncnc32)C1` [compound 42] it is 18 nM. Same read-out and setting: as for `C=CC(=O)N1CCC[C@@H](n2nc(C(=O)Nc3ccc(CC(=O)N(C)C)cc3N(C)C)c3c(N)ncnc32)C1` [compound 47], the figure is 52 nM. As for `C=CC(=O)N1CCC[C@@H](n2nc(C(=O)Nc3ccc(CC(=O)N(C)C)cc3C=C)c3c(N)ncnc32)C1` [compound 48], the IC50 in experiment [1] came out at 8.5 nM; in experiment [2], 314 nM; in experiment [3], 4 nM. Take `C=CC(=O)N1CCC[C@@H](n2nc(C(=O)Nc3ccc(CC(=O)N(C)C)cc3CC)c3c(N)ncnc32)C1` [compound 49]: in experiment [1], the IC50 turned out to be 20 nM.

Consider `C=CC(=O)N1CCC[C@@H](n2nc(C(=O)Nc3ccc(CC(=O)N(C)C)c(F)c3Cl)c3c(N)ncnc32)C1` [compound 50], for which the IC50 in experiment [1] was 2.9 nM; in experiment [2], 277 nM; in experiment [3], 4 nM. `C=CC(=O)N1CCC[C@@H](n2nc(C(=O)Nc3ccc(CC(=O)N(C)C)cc3-c3ccco3)c3c(N)ncnc32)C1` [compound 51]: in experiment [1], the IC50 was 17 nM. Still for that read-out and setting: as for `C=CC(=O)N1CCC[C@@H](n2nc(C(=O)Nc3ccc(CC(=O)N(C)C)cc3-c3ccoc3)c3c(N)ncnc32)C1` [compound 52], the figure is 13 nM; as for `C=CC(=O)N1CC[C@@H](n2nc(C(=O)Nc3ccc(CC(=O)N(C)C)cc3Cl)c3c(N)ncnc32)C1` [compound 54], 31 nM. `C=CC(=O)N1CC[C@@H](n2nc(C(=O)Nc3ccc(CC(=O)N(C)C)c(Cl)c3OC)c3c(N)ncnc32)C1` [compound 55]: the IC50 in experiment [1] came to 49 nM. As for `C=CC(=O)N1CC[C@@H](n2nc(C(=O)Nc3ccc(CC(=O)N(C)C)c(F)c3C)c3c(N)ncnc32)C1` [compound 56], the IC50 in experiment [1] is 22 nM; in experiment [2], 2610 nM; in experiment [3], 31 nM.

As to `C=CC(=O)N1CC[C@@H](n2nc(C(=O)Nc3ccc(CC(=O)N(C)C)c(F)c3OC)c3c(N)ncnc32)C1` [compound 57], the IC50 in experiment [1] is 31 nM; in experiment [2], 3390 nM; in experiment [3], 44 nM. As to `C=CC(=O)N1CC[C@@H](n2nc(C(=O)Nc3ccc(OC(=O)N(C)C)c4ccccc34)c3c(N)ncnc32)C1` [compound 58], the IC50 in experiment [2] was determined as 681 nM.

As for `C=CC(=O)N1CC[C@@H](n2nc(C(=O)Nc3ccc(CC(=O)N(C)C)c(C)c3C)c3c(N)ncnc32)C1` [compound 59], the IC50 in experiment [1] stood at 45 nM. `C=CC(=O)N1CC[C@@H](n2nc(C(=O)Nc3ccc(CC(=O)N(C)C)cc3C=C)c3c(N)ncnc32)C1` [compound 60]: the IC50 in experiment [1] came out at 20 nM; in experiment [2], 5260 nM. In the case of `C=CC(=O)N1CC[C@@H](n2nc(C(=O)Nc3ccc(CC(=O)N(C)C)c4ccccc34)c3c(N)ncnc32)C1` [compound 61], the IC50 in experiment [1] came out at 13 nM; in experiment [2] it was 1100 nM. Consider `C=CC(=O)N1CC[C@@H](n2nc(C(=O)Nc3ccc(CC(=O)N(C)C)cc3Br)c3c(N)ncnc32)C1` [compound 62], for which the IC50 in experiment [1] is 59 nM. With `C=CC(=O)N1CC[C@@H](n2nc(C(=O)Nc3ccc(OC(=O)N(C)C)cc3C)c3c(N)ncnc32)C1` [compound 63], the IC50 in experiment [2] was determined as 1670 nM; in experiment [3], 11 nM. For `C=CC(=O)N1CC[C@@H](n2nc(C(=O)Nc3ccc(CC(=O)N(C)C)c(F)c3Cl)c3c(N)ncnc32)C1` [compound 65], the IC50 in experiment [1] is 20 nM. Take `C=CC(=O)N1CC[C@@H](n2nc(C(=O)Nc3cc(Cl)c(CC(=O)N(C)C)cc3C)c3c(N)ncnc32)C1` [compound 67]: the IC50 in experiment [1] was determined as 72 nM. In the case of `C=CC(=O)N1CCC[C@@H](n2nc(C(=O)Nc3ccc(CC(=O)N4CCCC4)cc3C)c3c(N)ncnc32)C1` [compound 71, (R)-1-(1-acryloylpiperidin-3-yl)-4-amino-N-(2-methyl-4-(2-oxo-2-(pyrrolidin-1-yl)ethyl)phenyl)-1H-pyrazolo[3,4-d]pyrimidine-3-carboxamide], the IC50 in experiment [2] (Homo sapiens, A-431, 72 h) was determined as 2120 nM; in experiment [3] (Homo sapiens, NCI-N87, 72 h), 26 nM. The corresponding values for `C=CC(=O)N1CCC[C@@H](n2nc(C(=O)Nc3ccc(NC(=O)N(C)C)cc3C)c3c(N)ncnc32)C1` [compound 74, (R)-1-(1-acryloylpiperidin-3-yl)-4-amino-N-(4-(3,3-dimethylureido)-2-methylphenyl)-1H-pyrazolo[3,4-d]pyrimidine-3-carboxamide] are 8080 nM and 18 nM. Consider `C=CC(=O)N1C[C@H](n2nc(C(=O)Nc3ccc(CC(=O)N(C)C)cc3Cl)c3c(N)ncnc32)C[C@@H]1C` [compound 78], for which the IC50 in experiment [2] turned out to be 5450 nM. As for `C=CC(=O)N1C[C@H](n2nc(C(=O)Nc3ccc(CC(=O)N(C)C)c(C)c3C)c3c(N)ncnc32)C[C@@H]1C` [compound 79], the IC50 in experiment [1] worked out at 17 nM; in experiment [2], 6940 nM. For “(R)-4-(1-(1-acryloylpyrimidin-3-yl)-4-amino-1H-pyrazolo[3,4-d]pyrimidine-3-carboxamido)-3-methylphenyl methyl(phenyl) carbamate [compound 68]”, the IC50 in experiment [1] stood at 7.7 nM. As to “(R)-4-(1-(1-acryloylpyrimidin-3-yl)-4-amino-1H-pyrazolo[3,4-d]pyrimidine-3-carboxamido)-3-methylphenyl piperidine-1-carboxylate [compound 70]”, the IC50 in experiment [1] was 10 nM. The same measure, in the same setting: the figure for “(R)-4-(1-(1-acryloylpyrimidin-3-yl)-4-amino-1H-pyrazolo[3,4-d]pyrimidine-3-carboxamido)-3-methylphenyl pyrrolidine-1-carboxylate [compound 69]” is 9.2 nM.
